The values that follow are results of earlier work, collected in US20070275060A1, “Extended release solid pharmaceutical composition containing carbidopa and levodopa” (OSMOTICA COSTA RICA SOCIEDAD ANONIMA, priority 2005, published 2007).

The conditions of this data set: orally administered.

As for `N[C@@H](Cc1ccc(O)c(O)c1)C(=O)O` [LD], the “time of peak concentrations” value was 30 to 120 min.
